Patent US6884796B2, “Meiosis regulating compounds” (NovoNordisk A/S, priority 1998, dated 2005)

Legend:
naked oocytes (NO) [1] = assay: Agonistic oocyte assay: germinal vesicle breakdown and polar body formation in naked oocytes cultured in Hx-medium; format: cell-based, mice; details: 10 mikroM; for mean % GVB / mean % PB: naked oocytes (NO) cultured in vitro for 24 hours in Hx-medium; for mean Relative Effect: naked oocytes (NO), 24 hours, indexed: control = 0, FF-MAS = 100
Protocol: An agonistic oocyte assay can be performed as follows:
Oocytes were obtained from immature female mice (C57BU6J x DBA/2J F1, Bomholtgaard, Denmark) weighing 13-16 grams, that were kept under controlled temperature (20-22° C.), light (lights on 06.00-18.00) and relative humidity (50-70%). The mice received an intra-peritoneal injection of 0.2 ml gonadotropins (Gonal-F, Serono) containing 20 IU FSH and 48 hours later the animals were killed by cervical dislocation.
The ovaries were dissected out and the oocytes were isolated in Hx-medium (see below) under a stereo microscope by manual rupture of the follicles using a pair of 27 gauge needles. Spherical oocytes displaying an intact germinal vesicle (hereinafter designated GV) were divided in cumulus enclosed oocytes (hereinafter designated CEO) and naked oocytes (hereinafter designated NO) and placed in a-minimum essential medium (α-MEM without ribonucleosides, Gibco BRL, Cat. No. 22561) supplemented with 3 mg/ml bovine serum albumin (BSA, Sigma Cat. No. A-7030), 5 mg/ml human serum albumin (HSA, Statens Seruminstitute, Denmark), 0.23 mM pyruvate (Sigma, Cat. No S-8636), 2 mM glutamine (Flow Cat. No. 16-801), 100 IU/ml penicillin and 100 μg/ml streptomycin (Flow, Cat No. 16-700). This medium was supplemented with 3 mM hypoxanthine (Sigma Cat. No. H-9377) and designated Hx-medium.
The oocytes were rinsed three times in Hx-medium and oocytes of uniform size were divided into groups of CEO and NO. CEO and NO were cultured in 4-well multidishes (Nunclon, Denmark) in which each well contained 0.4 ml of Hx-medium. One control well (i.e., 35-45 oocytes cultured in identical medium with no addition of test compound) was always cultured simultaneously with 3 test wells (35-45 oocytes per well supplemented with test compound).
The oocytes were cultured in a humidified atmosphere of 5% CO2 in air for 24 hours at 37° C. By the end of the culture period, the number of oocytes with germinal vesicle (hereinafter designated GV), germinal vesicle breakdown (hereinafter designated GVB) and polar bodies (hereinafter designated PB), respectively, were counted using a stereomicroscope (Wildt, Leica MZ 12). The percentage GVB, defined as percentage of oocytes undergoing GVB per total number of oocytes in that well, was calculated as: % GVB=(number of GVB+number of PB/total number oocytes)×100.
The % PB was defined as percentage of oocytes displaying one extruded polar body per total number of oocytes in that well.
The effect of the tested compounds has been indexed against control level and 4,4-dimethyl-5α-cholesta-8,14,24-trien-3β-ol (hereinafter designated FF-MAS) where controls and FF-MAS are indexed to an effect of 0 and 100, respectively. The relative effect of the tested compound is calculated as follows: Relative effect=((test GVB %−control GVB %)/(FF-MAS GVB %−control GVB %))×100. Results

naked oocytes (NO) [2] = details: Byskov et al. Nature 374 (1995), 559-562; cited from earlier work

SMILES	melting point	mean % GVB (naked oocytes (NO) [1])	mean % PB (naked oocytes (NO) [1])	mean Relative Effect (naked oocytes (NO) [1])	induction of meiosis in NO in vitro (naked oocytes (NO) [2])
C[C@H](CCCNc1ccccc1)[C@H]1CC=C2C3=C(CC[C@@]21C)[C@@]1(C)CC[C@H](O)C(C)(C)[C@@H]1CC3	178 to 180 °C	–	–	–	–
COC(=O)CC[C@@H](C)[C@H]1CC[C@H]2C3=CC=C4C(C)(C)[C@@H](O)CC[C@]4(C)[C@H]3CC[C@]12C	124 to 128 °C	–	–	–	–
C[C@H](CCC(=O)O)[C@H]1CC[C@H]2C3=CC=C4C(C)(C)[C@@H](O)CC[C@]4(C)[C@H]3CC[C@]12C	210 to 213 °C	–	–	–	–
C[C@H](CCCOCc1ccccc1)[C@H]1CC=C2C3=C(CC[C@@]21C)[C@@]1(C)CC[C@H](O)C(C)(C)[C@@H]1CC3	114 to 115 °C	–	–	–	–
C[C@H](CCC(=O)O)[C@H]1CC=C2C3=C(CC[C@@]21C)[C@@]1(C)CC[C@H](O)C(C)(C)[C@@H]1CC3 [Example 4, 3β-Hydroxy-4,4-dimethyl-5α-chola-8,14-dien-24-oic acid]	–	10.5%	3.5%	−10	–
CC(C)C(=O)CC[C@@H](C)[C@H]1CC=C2C3=C(CC[C@@]21C)[C@@]1(C)CC[C@H](O)C(C)(C)[C@@H]1CC3 [Example 6, 3β-Hydroxy4,4-dimethyl-5α-cholesta-8,14-dien-24-one]	–	88%	11%	110	–
C[C@H](CCC(=O)Nc1ccccc1)[C@H]1CC=C2C3=C(CC[C@@]21C)[C@@]1(C)CC[C@H](O)C(C)(C)[C@@H]1CC3 [Example 10, 3β-Hydroxy-4,4-dimethyl-5α-chola-8,14-dien-24-oic acid-N-phenyl amide]	–	10%	3%	−10	–
Cc1ccc(C[C@@H](C)[C@H]2CC=C3C4=C(CC[C@@]32C)[C@@]2(C)CC[C@H](O)C(C)(C)[C@@H]2CC4)cc1 [Example 21, (20R)-4,4,20-Trimethyl-21-(4-methylphenyl)-5α-pregna-8,14-dien-3δ-ol]	–	82%	29.5%	98	–
C[C@H](CC1CCCCC1)[C@H]1CC=C2C3=C(CC[C@@]21C)[C@@]1(C)CC[C@H](O)C(C)(C)[C@@H]1CC3 [Example 23, (20R), 4,20-Trimethyl-21-(cyclohexyl)-5α-pregna-8,14-dien-3β-ol]	–	73.5%	21.5%	98	–
C=C(C)CCC[C@@H](C)[C@H]1CC=C2C3=C(CC[C@@]21C)[C@@]1(C)CC[C@H](O)C(C)(C)C1CC3 (stereo partly drawn) [Example 33, 4,4-Dimethylcholest-8,14,25-trien-3β-ol]	–	70%	14.5%	105	–
CC(C)=CCC[C@@H](C)[C@H]1CC=C2C3=C(CC[C@@]21C)[C@@]1(C)CC[C@H](O)C(C)(C)[C@@H]1CC3 [FF-MAS, 4,4-dimethyl-5α-cholesta-8,14,24-trien-3β-ol, reference compound]	–	86.1%	28.5%	100	induce meiosis

More lines, main results first:

melting point	SMILES	mean % GVB (naked oocytes (NO) [1])	mean % PB (naked oocytes (NO) [1])	mean Relative Effect (naked oocytes (NO) [1])	induction of meiosis in NO in vitro (naked oocytes (NO) [2])
156 to 157 °C	COC(=O)CC[C@@H](C)[C@H]1CC=C2C3=C(CC[C@@]21C)[C@@]1(C)CC[C@H](O)C(C)(C)[C@@H]1CC3	–	–	–	–
233 to 235 °C	C[C@H](CCC(N)=O)[C@H]1CC=C2C3=C(CC[C@@]21C)[C@@]1(C)CC[C@H](O)C(C)(C)[C@@H]1CC3	–	–	–	–
122 to 124 °C	CCOC(=O)CC[C@@H](C)[C@H]1CC=C2C3=C(CC[C@@]21C)[C@@]1(C)CC[C@H](O)C(C)(C)[C@@H]1CC3	–	–	–	–
171 to 176 °C	C[C@H](CCC(=O)NC(C)(C)C)[C@H]1CC=C2C3=C(CC[C@@]21C)[C@@]1(C)CC[C@H](O)C(C)(C)[C@@H]1CC3	–	–	–	–
219 to 221 °C	CC(=O)NCCC[C@@H](C)[C@H]1CC=C2C3=C(CC[C@@]21C)[C@@]1(C)CC[C@H](O)C(C)(C)[C@@H]1CC3	–	–	–	–
130 to 132 °C	C[C@H](CCC(=O)OC1CCCCC1)[C@H]1CC=C2C3=C(CC[C@@]21C)[C@@]1(C)CC[C@H](O)C(C)(C)[C@@H]1CC3	–	–	–	–
118 to 119 °C	C[C@H](CCC(=O)OCc1ccccc1)[C@H]1CC=C2C3=C(CC[C@@]21C)[C@@]1(C)CC[C@H](O)C(C)(C)[C@@H]1CC3	–	–	–	–
188 to 190 °C	C[C@H](CCCC(C(=O)O)C(=O)O)[C@H]1CC=C2C3=C(CC[C@@]21C)[C@@]1(C)CC[C@H](O)C(C)(C)[C@@H]1CC3	–	–	–	–
183 to 185 °C	CC(=O)CC[C@@H](C)[C@H]1CC=C2C3=C(CC[C@@]21C)[C@@]1(C)CC[C@H](O)C(C)(C)[C@@H]1CC3	–	–	–	–
